From patent EP0427518B1, “NMDA-Blocking compounds, pharmaceutical compositions, their preparation and use” (priority 1989, dated 1991)

How the values were obtained:
NMDA receptor [1] = experiment: Equilibrium binding of [³H]TCP to well-washed rat brain cortical membranes
Sabra mice [2] = experiment: Induction of stereotypy (stereotypy gradient of Feigenbaum et al.); type: in vivo; conditions: for Stereotypy Gradient: HU-211 2.5 mg/kg s.c., mean ±SEM
Source text: (§1) As will be shown hereafter, the pharmacological profile of HU-211, and other compounds constituting the active ingredients of the present compositions, includes the induction of stereotypy, locomotor hyper-activity and tachycardia in mice (Table 1). […] This possibility was explored by examining the activity of the compounds in protecting against the tremorogenic, convulsive and lethal effects of NMDA and NMDA agonists in mice. Such effects are counteracted by virtually all NMDA antagonists.

NMDA receptor [3] = experiment: Kinetics of basal and glutamate/glycine-induced [³H]TCP binding to rat brain cortical membranes
Protocol: Kinetic experiments were then performed in order to determine whether HU-211 exerts its behavioral effects by acting directly at the glutamate- or the glycine-binding sites of the NMDA receptor.
Like the competitive NMDA antagonist aminophosphovalerate (AP-5), HU-211 reduces the glutamate/glycine potentiation of [³H]TCP binding.
HU-211 reduces the rate of binding of [³H]TCP to the NMDA-receptor channel and the rate of dissociation of [³H]TCP-receptor complexes. • A) Time course of basal (without added agonist) and induced with 1 »M L-glutamate and 1 »M glycine) [³H]TCP binding to the NMDA receptor of rat brain cortical membranes. Data represent the basal binding determined in the absence (●) and in the presence (▲) of 10 »M HU-211, and the induced binding determined in the absence (o) and in the presence (△) of 10 »M HU-211. Binding of [³H]TCP to well-washed control membranes was determined under the following conditions: membranes (80 »g protein) were incubated at 25°C in 200 »l HEPES buffer, pH 7.4, containing 5 nM [³H]TCP (total binding) or 5 nM [³H]TCP and 100 »M PCP (phencyclidine) (nonspecific binding), and the reactions were terminated at the indicated times by rapid filtration over polyethyleneimine-treated GF/C filters. The filters were counted in scintillation liquid (Hydroluma, Lumac Inc., Netherlands). HU-211 was prepared as described elsewhere [Mechoulam, R., et al., Tetrahedron:Asymmetry, 1:315-319 (1990)]. Means values (triplicates) of the specific binding of [³H]TCP (total minus non-specific binding) are plotted as a function of the incubation time. The data shown are from one of three experiments that gave similar results. • (B-C) First-order plots of the basal (B) and the induced (C) dissociation of [³H]TCP-receptor complexes. Data represent the basal (without added agonist) dissociation rates determined in the absence (●) and in the presence (▲) of 10 »M HU-211; the induced (with 1 »M L-glutamate and 1 »M glycine) dissociation rates were determined in the absence (o) and in the presence (△) of 10 »M HU-211. Samples were preincubated as described for Figure 2A, at 25°C with 18 nM [³H]TCP for 2 h. Basal dissociation reactions were initiated by the addition of 100 »M unlabeled PCP with or without 10 »M HU-211. For the induced dissociation reactions 1 »M glutamate and 1 »M glycine were also added. Reactions were terminated either immediately (zero time) or at the indicated times. Beq, amount of [³H]TCP bound at zero time. Bt, amount of [³H]TCP boud at time t. […]
Data represent the concentration-dependent decrease of [³H]TCP binding by HU-211 (o) and by its isomer HU-210 (△). Binding of [³H]TCP (5 nM) was determined as described for Figure 2A, either in the absence (basal) or in the presence (induced) of 1 »M glutamate (A) or of 1 »M glycine (B).
Reactions were terminated after 10 min. Data are expressed as induced over basal binding as a function of isomer concentrations. […]
Non-competitive inhibition of glutamate- or glycine-induced [³H]TCP binding by HU-211. Induced [³H]TCP binding, corresponding to the ratio of binding in the presence of glutamate or glycine to binding in their absence, was determined with 5 nM [³H]TCP at 25°C for 10 min. Binding of (³H)TCP to well-washed rat cortical membranes was determined in triplicate, as described previously [Kloog, Y., et al., Biochemistry, 27: 843-848 (1988)], in the absence (basal) and presence of various concentrations of L-glutamate (a) or glycine (b) with and without HU-211, as indicated. […]

BALB/C mice [4] = experiment: Protection against strychnine toxicity; type: in vivo; conditions: Strychnine 1 mg/kg s.c.; vehicle Emulphor; HU-211 10 mg/kg; 75 min post HU-211
Protocol: (§2) BALB/C mice (20 g) were subcutaneously injected with picrotoxin, strychnine and NMDA in doses of about LD₉₀ and subsequent clinical observations for the occurrence of convulsions and death were carried out within 20 min. The number of mice used and the mortality were assessed at the highest doses administered.

BALB/C mice [5] = experiment: Protection against NMDA toxicity; type: in vivo; conditions: for % alive / No.alive total / Onset time of clinical signs: NMDA 125 mg/kg s.c., 120 min post HU-211
Protocol: as §2

Sabra mice [6] = experiment: Locomotor activity (body displacement over 7-cm squares); type: in vivo; conditions: HU-211 2.5 mg/kg s.c., mean ±SEM
Source text: as §1

[7] = even at doses several thousand times higher than ED₅₀ of HU-210; cited from earlier work
BALB/C mice [8] = experiment: Protection against picrotoxin toxicity; type: in vivo; conditions: Picrotoxin 4 mg/kg s.c.; vehicle Emulsion; HU-211 10 mg/kg; 120 min post HU-211
Protocol: as §2

Sabra mice [9] = experiment: Induction of tachycardia (heart rate); type: in vivo; conditions: HU-211 2.5 mg/kg s.c., mean ±SEM
Source text: as §1

[10] = vehicle Emulphor, HU-211 5 mg/kg
[11] = vehicle Emulsion, HU-211 5 mg/kg
[12] = vehicle Emulsion, HU-211 10 mg/kg

SMILES: CCCCCCC(C)(C)c1cc(O)c2c(c1)OC(C)(C)[C@H]1CC=C(CO)C[C@H]21 [HU-211, (+)-(3S,4S)-1,1-dimethylheptyl homolog of 7-hydroxy-Δ⁶-tetrahydrocannabinol]
- equilibrium binding of 5 nM [³H]TCP (NMDA receptor [1]; 100 »M HU-211): not inhibited
- maximum binding capacity of [3H]TCP (NMDA receptor [1]; in the presence of HU-211 10 »M, 2-100 nM [³H]TCP, 1 »M glutamate and 1 »M glycine (control 3.4)): 3.5 pmol/mg protein
- Stereotypy Gradient (Sabra mice [2]; time 0 min): 0.4±0.1
- Stereotypy Gradient (Sabra mice [2]; time 15 min): 1.3±0.2
- Stereotypy Gradient (Sabra mice [2]; time 30 min): 2.2±0.1
- Stereotypy Gradient (Sabra mice [2]; time 45 min): 0.7±0.2
- Stereotypy Gradient (Sabra mice [2]; time 60 min): 0.6±0.3
- induction of stereotypy, locomotor hyperactivity and tachycardia (Sabra mice [2]; at about 25 mg/kg body weight, summary statement covering stereotypy, locomotor and heart rate tests, mice): induce stereotypy, locomotor hyperactivity and tachycardia
- dissociation rate of [³H]TCP from the NMDA receptor (NMDA receptor [3]; 10 »M HU-211, both in absence and presence of 1 »M glutamate and 1 »M glycine, much more strongly in their presence): decreased the dissociation rate
- inhibition of the induced [³H]TCP binding compared with the (-)enantiomer HU-210 (NMDA receptor [3]; Figure 3, stereospecificity): far more potent inhibitor
- efficacy of glutamate- or glycine-induced [³H]TCP binding (NMDA receptor [3]; HU-211 10 and 5 »M, apparent affinities of glutamate and glycine not altered): reduced the efficacy
- rate of association of [³H]TCP binding to the NMDA receptor (NMDA receptor [3]; basal (no added agonist), 10 »M HU-211): only a small decrease
- association rate of [³H]TCP binding (NMDA receptor [3]; induced: 1 »M glutamate and 1 »M glycine, 10 »M HU-211): marked decrease
- % alive (BALB/C mice [4]): 80%
- No.alive total (BALB/C mice [4]): 8/10
- protection against NMDA toxicity, Emulsion compared with Emulphor preparation (BALB/C mice [5]; HU-211 carried in the Emulsion versus the Emulphor preparation): better protection
- % alive (BALB/C mice [5]; [10]): 20%
- No.alive total (BALB/C mice [5]; [10]): 2/10
- Onset time of clinical signs (BALB/C mice [5]; [10]): 19 min
- % alive (BALB/C mice [5]; [11]): 60%
- No.alive total (BALB/C mice [5]; [11]): 4/7
- Onset time of clinical signs (BALB/C mice [5]; [11]): 7 min
- % alive (BALB/C mice [5]; [12]): 80%
- No.alive total (BALB/C mice [5]; [12]): 8/10
- Onset time of clinical signs (BALB/C mice [5]; [12]): 10 min
- Locomotor Activity (Sabra mice [6]; time 0 min, score = squares crossed): 32.0±6.0
- Locomotor Activity (Sabra mice [6]; time 15 min): 45.0±2.0
- Locomotor Activity (Sabra mice [6]; time 30 min): 37.0±4.04
- Locomotor Activity (Sabra mice [6]; time 45 min): 28.0±13.0
- Locomotor Activity (Sabra mice [6]; time 60 min): 17.0±7
- cannabimimetic activity [7]: inactive
- % alive (BALB/C mice [8]): 50%
- No.alive total (BALB/C mice [8]): 4/8
- Onset time of clinical signs (BALB/C mice [8]): 54 min
- Heart Rate (Sabra mice [9]; time 0 min): 169.2±2.5 per min
- Heart Rate (Sabra mice [9]; time 75 min): 186.8±2.5 per min
